Results on 21 compounds are retold here after BindingDB's records for doi:10.1016/j.bmcl.2010.04.020 (Kalypsys, 2010).

Structures are written as SMILES. pEC50: −log10 of the molar value.

The nature of this assay: Inhibition of ROCK1 in human GTM3 cells by impedance assay.

What is called pEC50 is −log10 of the EC50, conventionally taken in molar units. The low end stands for a large EC50, the high end for a small EC50. Regarding `Cc1c(-c2ccnc(N)n2)sc2ccc(Cc3cccc(C(F)(F)F)c3)cc12` [4-(3-methyl-5-(3-(trifluoromethyl)benzyl)benzo[b]thiophen-2-yl)pyrimidin-2-amine], the pEC50 was below 5.00.

`CCCC(N)c1ccc2sc(-c3ccnc(N)n3)c(C)c2c1` (racemic) [(+/-)-4-(5-(1-aminobutyl)-3-methylbenzo[b]thiophen-2-yl)pyrimidin-2-amine] gave a negative-log EC50 (pEC50) of 6.22.

In the case of `Cc1c(-c2ccnc(N)n2)sc2ccc(C(N)c3cccc(Cl)c3)cc12` (racemic) [(+/-)--4-(5-(amino(3-chlorophenyl)methyl)-3-methylbenzo[b]thiophen-2-yl)pyrimidin-2-amine], the pEC50 was 5.57.

Take `Cc1c(-c2ccnc(N)n2)sc2ccc(Cc3cccc(C(=O)O)c3)cc12` [3-((2-(2-aminopyrimidin-4-yl)-3-methylbenzo[b]thiophen-5-yl)methyl)benzoic acid]: the pEC50 is below 5.00.

The compound `Cc1c(-c2ccnc(N)n2)sc2ccc(C(C)N)cc12` (racemic) [(+/-)-4-(5-(1-aminoethyl)-3-methylbenzo[b]thiophen-2-yl)pyrimidin-2-amine] showed a negative logarithm of the EC50 (pEC50) of 5.38.

As for `Cc1c(-c2ccnc(N)n2)sc2ccc(Cc3ccccc3)cc12` [4-(5-benzyl-3-methylbenzo[b]thiophen-2-yl)pyrimidin-2-amine], the pEC50 was below 5.00.

Take `Cc1c(-c2ccnc(N)n2)sc2ccccc12` [4-(3-methylbenzo[b]thiophen-2-yl)pyrimidin-2-amine]: the pEC50 is below 5.00.

Consider `COC(=O)c1cccc(Cc2ccc3sc(-c4ccnc(N)n4)c(C)c3c2)c1` [methyl 3-((2-(2-aminopyrimidin-4-yl)-3-methylbenzo[b]thiophen-5-yl)methyl)benzoate], for which the pEC50 is below 5.00.

`CCC(N)c1ccc2sc(-c3ccnc(N)n3)c(C)c2c1` (racemic) [(+/-)-4-(5-(1-aminopropyl)-3-methylbenzo[b]thiophen-2-yl)pyrimidin-2-amine] had a negative-log EC50 (pEC50) of 5.77.

In the case of `Cc1c(-c2ccnc(N)n2)sc2ccc(C(N)c3ccccc3)cc12` (racemic) [(+/-)-4-(5-(amino(phenyl)methyl)-3-methylbenzo[b]thiophen-2-yl)pyrimidin-2-amine], the negative-log EC50 (pEC50) was 5.85.

The compound `Cc1c(-c2ccnc(N)n2)sc2ccc(CN)cc12` [4-(5-(aminomethyl)-3-methylbenzo[b]thiophen-2-yl)pyrimidin-2-amine] showed a pEC50 below 5.00.

On to `Cc1c(-c2ccnc(N)n2)sc2ccc(C(N)CC(C)C)cc12` (racemic) [(+/-)-4-(5-(1-amino-3-methylbutyl)-3-methylbenzo[b]thiophen-2-yl)pyrimidin-2-amine], for which the negative logarithm of the EC50 (pEC50) is 5.85.

The compound `Cc1c(-c2ccnc(N)n2)sc2ccc(-c3ccccc3)cc12` [4-(3-methyl-5-phenylbenzo[b]thiophen-2-yl)pyrimidin-2-amine] had a pEC50 below 5.00.

For `Cc1c(-c2ccnc(N)n2)sc2ccc(Cc3cccc(O)c3)cc12` [3-((2-(2-aminopyrimidin-4-yl)-3-methylbenzo[b]thiophen-5-yl)methyl)phenol], the pEC50 is 5.54.

On to `COc1ccccc1Cc1ccc2sc(-c3ccnc(N)n3)c(C)c2c1` [4-(5-(2-methoxybenzyl)-3-methylbenzo[b]thiophen-2-yl)pyrimidin-2-amine], for which the pEC50 is below 5.00.

`COc1ccc(C(N)c2ccc3sc(-c4ccnc(N)n4)c(C)c3c2)cc1` (racemic) [(+/-)--4-(5-(amino(4-methoxyphenyl)methyl)-3-methylbenzo[b]thiophen-2-yl)pyrimidin-2-amine] had a pEC50 of 5.59.

In turn, `COc1cccc(C(N)c2ccc3sc(-c4ccnc(N)n4)c(C)c3c2)c1` (racemic) [(+/-)-4-(5-(amino(3-methoxyphenyl)methyl)-3-methylbenzo[b]thiophen-2-yl)pyrimidin-2-amine] had a pEC50 of 5.44.

In the case of `COc1ccc(Cc2ccc3sc(-c4ccnc(N)n4)c(C)c3c2)cc1` [4-(5-(4-methoxybenzyl)-3-methylbenzo[b]thiophen-2-yl)pyrimidin-2-amine], the pEC50 is below 5.00.

In the case of `Cc1cccc(C(N)c2ccc3sc(-c4ccnc(N)n4)c(C)c3c2)c1` (racemic) [(+/-)--4-(5-(amino(m-tolyl)methyl)-3-methylbenzo[b]thiophen-2-yl)pyrimidin-2-amine], the pEC50 was 5.72.

As to `COc1cccc(Cc2ccc3sc(-c4ccnc(N)n4)c(C)c3c2)c1` [4-(5-(3-methoxybenzyl)-3-methylbenzo[b]thiophen-2-yl)pyrimidin-2-amine], the pEC50 is below 5.00.

`Cc1c(-c2ccnc(N)n2)sc2ccc(C(N)C(C)C)cc12` (racemic) [(+/-)-4-(5-(1-amino-2-methylpropyl)-3-methylbenzo[b]thiophen-2-yl)pyrimidin-2-amine] showed a pEC50 of 5.68.
